ChEMBL document CHEMBL4811228, “Design, Synthesis, and Activity Evaluation of Novel Acyclic Nucleosides as Potential Anticancer Agents In Vitro and In Vivo” (J Med Chem, 2021)
Active and inactive are the calls of the source. The rule behind the calls is not given here.

What was measured:
HCT-116 [1] = assay: Antiproliferative activity against human HCT-116 cells assessed as reduction in cell viability incubated for 48 hrs by MTT assay; type: functional, cell-based; settings: HCT-116, 48 h
U-87 MG = assay: Antiproliferative activity against human U-87 MG cells assessed as reduction in cell viability incubated for 48 hrs by MTT assay; type: functional, cell-based, U-87MG ATCC
SW480 [2] = assay: Antiproliferative activity against human SW480 cells assessed as reduction in cell viability incubated for 48 hrs by MTT assay; type: functional, cell-based; settings: SW480, 48 h
HeLa = assay: Antiproliferative activity against human HeLa cells assessed as reduction in cell viability incubated for 48 hrs by MTT assay; type: functional, cell-based
A549 = assay: Antiproliferative activity against human A549 cells assessed as reduction in cell viability incubated for 48 hrs by MTT assay; type: functional, cell-based; settings: A549, 48 h
SW480 [3] = assay: Binding affinity to 75kDa protein in human SW480 cells incubated for overnight by pull down based silver staining analysis; type: cell-based
SW480 [4] = assay: Binding affinity to 75kDa protein in human SW480 cells incubated for overnight by pull down based western blot analysis; type: cell-based
HCT-116 [5] = assay: Potency index, ratio of 5-FU IC50 to test compound IC50 for antiproliferative activity against human HCT-116 cells; type: functional

## O=c1[nH]cc(F)c(=O)[nH]1 [FLUOROURACIL]
HCT-116 [1]
  IC50: 10.8 µM
U-87 MG
  IC50: > 50 µM
SW480 [2]
  IC50: 9.7 µM
HeLa
  IC50: > 50 µM
A549
  IC50: > 50 µM

## C#CCCC1(CCNC(=O)CC(CCCCCCCCC)n2cnc3c(Cl)ncnc32)N=N1 (racemic)
HCT-116 [1]
  IC50: 21.5 µM
SW480 [3]
  Activity: Active
SW480 [4]
  Activity: Active
SW480 [2]
  IC50: 13 µM

## CCCCCCCCCCC(CCO)n1cnc2c(N)ncnc21 (racemic)
HCT-116 [1]
  IC50: 2.59 µM
HCT-116 [5]
  Ratio IC50: 4

## C#CCCC1(CCN)N=N1
SW480 [4]
  Activity: inactive

## CCCCCCCCCC(CCOS(C)(=O)=O)n1cnc2c(Cl)ncnc21 (racemic)
HCT-116 [1]
  IC50: 5.44 µM
SW480 [2]
  IC50: 5.39 µM

## CCCCCCCCCC(CCO)n1cnc2c(N)nc(Cl)nc21 (racemic)
HCT-116 [1]
  IC50: 14.8 µM
SW480 [2]
  IC50: 12.2 µM

## CCCCCCCCC[C@H](CCOCP(=O)(OCC)OCC)n1cnc2c(Cl)ncnc21
HCT-116 [1]
  IC50: 10.9 µM
SW480 [2]
  IC50: 5.57 µM

## CCCCCCCCCC(CCO)n1cnc2c(N(C)C)ncnc21 (racemic)
HCT-116 [1]
  IC50: 9.81 µM
SW480 [2]
  IC50: 12.2 µM

## CCCCCCCCCCCC(CCO)n1cnc2c(N(C)C)ncnc21 (racemic)
HCT-116 [1]
  IC50: 12 µM
SW480 [2]
  IC50: 11.8 µM

## CCCCCCCCC(CCO)n1cnc2c(Cl)nc(Cl)nc21 (racemic)
HCT-116 [1]
  IC50: 22.2 µM
SW480 [2]
  IC50: 24 µM

## CCCCCCC(CCO)n1cnc2c(Cl)ncnc21 (racemic)
HCT-116 [1]
  IC50: 11.9 µM
SW480 [2]
  IC50: 16.7 µM

## CC(CCO)n1cnc2c(Cl)ncnc21 (racemic)
HCT-116 [1]
  IC50: > 50 µM
SW480 [2]
  IC50: > 50 µM

## CCCCCCCCCC(CCO)n1cnc2c(Cl)nc(Cl)nc21 (racemic)
HCT-116 [1]
  IC50: 32.6 µM
SW480 [2]
  IC50: 36.3 µM

## CCCCCCC[C@H](CCO)n1cnc2c(Cl)ncnc21
HCT-116 [1]
  IC50: 2.67 µM
SW480 [2]
  IC50: 2.93 µM

## CCCCCCCCCC(CC(=O)NCCCCCNC(=O)CCCC[C@@H]1SC[C@@H]2NC(=O)N[C@@H]21)n1cnc2c(Cl)ncnc21 (mixture of isomers)
HCT-116 [1]
  IC50: 44.7 µM
SW480 [3]
  Activity: Active
SW480 [2]
  IC50: 45.2 µM

## CCCCCCC(CCO)n1cnc2c(N)nc(Cl)nc21 (racemic)
HCT-116 [1]
  IC50: > 50 µM
SW480 [2]
  IC50: > 50 µM
